According to patent US8513232B2, “Substituted spirocyclic piperidine derivatives as histamine-3 (H3) receptor ligands” (Cephalon, Inc., priority 2008, dated 2013):
Like-named read-outs stand apart in the source and are kept apart here.

Columns and labels:
[1] = target: T1, human H3 receptor (Homo sapiens, UniProt Q9Y5N1); test: Human H3 radioligand binding ([3H]-N-alpha-methylhistamine, SPA)
T1 construct: expressed in transfected cells
In short: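 Compounds (0.01 nM-30 μM) competed with approximately 1 nM [3H]-N-alpha-methylhistamine for human H3 receptor in membranes of stably transfected CHO cells, 10 μg protein per well, in Tris-HCl pH 7.4/MgCl2/BSA buffer for 4 h at room temperature. Bound radioligand measured by scintillation proximity; 10 μM clobenpropit gave non-specific binding.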

[2] = target: T2, rat histamine H3 receptor (Rattus norvegicus, UniProt Q9QYN8); test: Rat H3 radioligand binding ([3H]-N-alpha-methylhistamine, SPA)
T2 construct: encoding the entire 445-amino-acid rat histamine H3 receptor; expressed in transfected cells; membrane preparation
T2 sequence (Q9QYN8 whole entry): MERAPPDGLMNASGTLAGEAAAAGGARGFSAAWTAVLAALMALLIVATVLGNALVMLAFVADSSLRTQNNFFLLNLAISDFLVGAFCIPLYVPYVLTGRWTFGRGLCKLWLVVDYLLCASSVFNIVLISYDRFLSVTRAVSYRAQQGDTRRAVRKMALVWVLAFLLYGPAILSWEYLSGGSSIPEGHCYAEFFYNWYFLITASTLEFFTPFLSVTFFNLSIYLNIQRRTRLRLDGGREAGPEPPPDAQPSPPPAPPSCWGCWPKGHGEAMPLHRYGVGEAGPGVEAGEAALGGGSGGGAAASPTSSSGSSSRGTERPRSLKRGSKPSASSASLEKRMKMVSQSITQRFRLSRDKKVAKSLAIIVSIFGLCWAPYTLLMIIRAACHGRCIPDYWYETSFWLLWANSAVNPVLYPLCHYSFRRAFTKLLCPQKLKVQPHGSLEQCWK
In short: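 SPA-bead binding assay using [3H]-N-alpha-methylhistamine (approximately 1 nM final) with test compounds from 0.01 nM to 30 μM. Rat H3 receptor membranes came from stably transfected CHO-A3 cells; incubation ran 4 h at room temperature, in the dark, in Tris pH 7.4 buffer with MgCl2 and BSA. Clobenpropit (10 μM) gave non-specific binding.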

[3] = Human H3 binding, Table B, Examples 136-362, read-out: hum H3 binding Ki
[4] = Rat H3 binding, Table B, Examples 136-362, read-out: rat H3 binding Ki
[5] = Table A, human H3 binding, read-out: Human Ki
[6] = Table A, rat H3 binding, read-out: Rat Ki
[7] = human H3 binding, Table D, read-out: Human H3 Ki
[8] = rat H3 binding, Table D, read-out: Rat H3 Ki
[9] = Table C, human H3 binding, read-out: Human H3 Ki
[10] = Table C, rat H3 binding, read-out: Rat H3 Ki

T1 sequence (Q9Y5N1 whole entry): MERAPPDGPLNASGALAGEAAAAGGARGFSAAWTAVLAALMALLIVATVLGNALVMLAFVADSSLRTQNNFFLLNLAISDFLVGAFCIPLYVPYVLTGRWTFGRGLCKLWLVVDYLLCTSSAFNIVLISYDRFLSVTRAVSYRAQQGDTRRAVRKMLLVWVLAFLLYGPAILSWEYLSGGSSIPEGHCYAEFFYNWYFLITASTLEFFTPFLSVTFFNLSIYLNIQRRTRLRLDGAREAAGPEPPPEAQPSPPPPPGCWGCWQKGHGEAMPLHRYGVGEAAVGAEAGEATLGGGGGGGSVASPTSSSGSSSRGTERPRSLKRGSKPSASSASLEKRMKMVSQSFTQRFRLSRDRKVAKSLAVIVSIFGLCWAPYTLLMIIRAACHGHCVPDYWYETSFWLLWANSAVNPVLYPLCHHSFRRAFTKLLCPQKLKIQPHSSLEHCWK

Row | Ki [1, 3] | Ki [2, 4] | melting point | Ki [1, 7] | Ki [2, 8] | Compound | further results
1 | – | – | 147.8 to 149 °C | – | – | CNC(=O)c1ccc(-c2ccc3c(c2)COC2(CCN(C4CCC4)CC2)O3)cc1F [Example 36] | Ki [1, 5]: < 200 nM; Ki [2, 6]: < 200 nM
2 | – | – | 189 to 191 °C | < 200 nM | < 200 nM | O=C(N[C@@H]1CCOC1)c1ccc(-c2ccc3c(c2)COC2(CCN(C4CCC4)CC2)O3)cc1Cl [Example 605] | –
3 | – | – | 66 to 68 °C | < 200 nM | < 200 nM | COC(=O)CCc1ccc2c(c1)COC1(CCN(C3CCC3)CC1)O2 [Example 630] | –
4 | – | – | 80 to 82 °C | < 200 nM | < 200 nM | CN(C)C(=O)c1ccc(-c2ccc3c(c2)COC2(CCN(C4CCC4)CC2)O3)cc1Cl [Example 608] | –
5 | – | – | 230 to 231 °C | < 200 nM | < 200 nM | Cn1cc(-c2ccc3c(c2)COC2(CCN(C4CCC4)CC2)O3)cnc1=O [Example 680] | –
6 | – | – | 76 to 80 °C | – | – | CN(C)C(=O)c1cccc2c1ccn2-c1ccc2c(c1)COC1(CCN(C3CCC3)CC1)O2 [Example 85] | Ki [1, 5]: < 200 nM; Ki [2, 6]: < 200 nM
7 | < 200 nM | < 200 nM | 174 to 175 °C | – | – | Cc1nc(C)c(C(=O)Nc2ccc3c(c2)COC2(CCN(C4CCC4)CC2)O3)s1 [Example 308] | –
8 | – | – | 230 to 231 °C | < 200 nM | < 200 nM | CCc1[nH]c(=O)ccc1-c1ccc2c(c1)COC1(CCN(C3CCC3)CC1)O2 [Example 767] | –
9 | – | – | 140 to 141 °C | < 200 nM | < 200 nM | c1cc(-c2ccc3c(c2)COC2(CCN(C4CCC4)CC2)O3)[nH]n1 [Example 730] | –
10 | < 200 nM | < 200 nM | 119 to 120 °C | – | – | CC(=O)N(Cc1cccs1)c1ccc2c(c1)COC1(CCN(C3CCC3)CC1)O2 [Example 348] | –
11 | – | – | 159 to 161 °C | < 200 nM | < 200 nM | CS(=O)(=O)c1ccc(-c2ccc3c(c2)COC2(CCN(C4CCC4)CC2)O3)s1 [Example 652] | –
12 | – | – | 150 to 151 °C | < 200 nM | < 200 nM | COc1ncc(-c2ccc3c(c2)COC2(CCN(C4CCC4)CC2)O3)cc1CO [Example 768] | –
13 | < 200 nM | < 200 nM | 213 to 215 °C | – | – | CN(C)c1cc(C(=O)Nc2ccc3c(c2)COC2(CCN(C4CCC4)CC2)O3)ccn1 [Example 314] | –
14 | 200 to 1000 nM | > 1000 nM | 155.6 to 157.3 °C | – | – | CNC(=O)c1ccc(-c2ccc3c(c2)CCOC2(CCN(C4CCC4)CC2)O3)cc1 [Example 180] | –
15 | < 200 nM | < 200 nM | 170 to 172 °C | – | – | O=C(Cc1ccncc1)Nc1ccc2c(c1)COC1(CCN(C3CCC3)CC1)O2 [Example 331] | –
16 | – | – | 60 to 62 °C | < 200 nM | < 200 nM | Cc1cc(=O)n(CC(F)(F)F)cc1-c1ccc2c(c1)COC1(CCN(C3CCC3)CC1)O2 [Example 755] | –
17 | – | – | 129 to 134 °C | – | – | CC(C)N1CC(c2ccc3c(c2)COC2(CCN(C4CCC4)CC2)O3)CCC1=O (stereo not drawn) [Example 563] | Ki ([1]; read-out: Human H3 Ki): < 200 nM; Ki ([2]; read-out: Rat H3 kI): < 200 nM
18 | – | – | 175 to 177 °C | < 200 nM | < 200 nM | O=c1cc(-c2ccc3c(c2)COC2(CCN(C4CCC4)CC2)O3)ccn1C(F)F [Example 775] | –
19 | < 200 nM | < 200 nM | 120 to 121 °C | – | – | CO[C@H]1CCN(C(=O)c2ccc(-c3ccc4c(c3)COC3(CCN(C5CCC5)CC3)O4)cc2)C1 [Example 191] | –
20 | – | – | 107 to 109 °C | < 200 nM | < 200 nM | CCc1cc(=O)[nH]cc1-c1ccc2c(c1)COC1(CCN(C3CCC3)CC1)O2 [Example 803] | –
21 | – | – | 187 to 190 °C | – | – | CN(C)C(=O)c1ccc(-c2ccc3c(c2)COC2(CCN(C4CCC4)CC2)O3)cc1 [Example 29] | Ki [1, 5]: < 200 nM; Ki [2, 6]: < 200 nM

Second part, the compound before the results:

Row | Compound | Ki [1, 3] | Ki [2, 4] | melting point | Ki [1, 7] | Ki [2, 8] | further results
22 | CC(C)C(=O)N1CCC(COc2ccc3c(c2)CCC2(CCN(C4CCC4)CC2)O3)CC1 [Example 357] | < 200 nM | < 200 nM | 130 to 132 °C | – | – | –
23 | O=C(O)C1CCCN(c2ccc3c(c2)COC2(CCN(C4CCC4)CC2)O3)C1 (stereo not drawn) [Example 614] | – | – | 84 to 86.4 °C | 200 to 1000 nM | 200 to 1000 nM | –
24 | c1ccc(N2CCN(c3ccc4c(c3)CCC3(CCN(C5CCC5)CC3)O4)CC2)nc1 [Example 368] | – | – | 171 to 172 °C | – | – | Ki [1, 9]: < 200 nM; Ki [2, 10]: < 200 nM
25 | COc1ccc(-c2ccc3c(c2)COC2(CCN(C(C)(C)C)CC2)O3)cn1 [Example 732] | – | – | 152 to 154 °C | < 200 nM | < 200 nM | –
26 | COCCNC(=O)c1ccc(-c2ccc3c(c2)CCC2(CCN(C4CCC4)CC2)O3)cc1C [Example 233] | < 200 nM | < 200 nM | 59.8 to 60.9 °C | – | – | –
27 | Cc1cc(-c2ccc3c(c2)CCC2(CCN(C4CCC4)CC2)O3)ccc1C(=O)NCCO [Example 238] | < 200 nM | < 200 nM | 78.5 to 79.8 °C | – | – | –
28 | c1cnc(Oc2ccc3c(c2)CCC2(CCN(C4CCC4)CC2)O3)nc1 [Example 400] | – | – | 258 to 260 °C | – | – | Ki [1, 9]: 200 to 1000 nM; Ki ([2]; Table C, rat H3 binding, given as numeric bound, read-out: Rat H3 Ki): > 300 nM
29 | c1cc2c(cc1N1CCC(N3CCOCC3)CC1)COC1(CCN(C3CCC3)CC1)O2 [Example 298] | < 200 nM | < 200 nM | 142.4 to 144.3 °C | – | – | –
30 | CC(=O)N[C@H]1CCN(c2ccc3c(c2)COC2(CCN(C4CCC4)CC2)O3)C1 [Example 342] | < 200 nM | < 200 nM | 77.9 to 80 °C | – | – | –
31 | CN(C)C(=O)c1cccc(COc2ccc3c(c2)CCC2(CCN(C4CCC4)CC2)O3)c1 [Example 602] | – | – | 183 to 185 °C | < 200 nM | < 200 nM | –
32 | FC1(F)CCN(c2ccc3c(c2)CCC2(CCN(C4CCC4)CC2)O3)C1 [Example 413] | – | – | > 275 °C (dec.) | – | – | Ki [1, 9]: < 200 nM; Ki [2, 10]: < 200 nM
33 | CC(C)C(=O)N1CCN(c2ccc3c(c2)CCC2(CCN(C4CCC4)CC2)O3)CC1 [Example 381] | – | – | 173 to 175 °C | – | – | Ki [1, 9]: < 200 nM; Ki [2, 10]: < 200 nM
34 | O=C(C1CC(O)(c2ccc3c(c2)COC2(CCN(C4CCC4)CC2)O3)C1)N1CCCC1 (stereo not drawn) [Example 482] | – | – | 157 to 159 °C | – | – | Ki ([1]; read-out: Human H3 Ki): < 200 nM; Ki ([2]; read-out: Rat H3 kI): < 200 nM
35 | CO[C@H]1CCN(C(=O)c2ccc(-c3ccc4c(c3)CCC3(CCN(C5CCC5)CC3)O4)cc2)C1 [Example 211] | < 200 nM | < 200 nM | 70.2 to 71 °C | – | – | –
36 | O=C(c1cccc(-c2ccc3c(c2)OC2(CCN(C4CCC4)CC2)OC3)c1)N1CCOCC1 [Example 96] | – | – | 61 °C | – | – | Ki [1, 5]: 200 to 1000 nM; Ki [2, 6]: 200 to 1000 nM
37 | O=C(Nc1ccc2c(c1)CCC1(CCN(C3CCC3)CC1)O2)c1cnnc2ccccc12 [Example 265] | – | – | 233 to 235 °C | – | – | Ki [1]: < 200 nM; Ki [2]: < 200 nM
38 | CCOCC1CCN(c2ccc3c(c2)COC2(CCN(C4CCC4)CC2)O3)CC1 [Example 627] | – | – | 85.2 to 86.5 °C | < 200 nM | < 200 nM | –
39 | O=C(c1ccccc1Nc1ccc2c(c1)COC1(CCN(C3CCC3)CC1)O2)N1CCOCC1 [Example 159] | < 200 nM | 200 to 1000 nM | 60 to 63 °C | – | – | –
40 | CNC(=O)C1CCN(c2ccc3c(c2)COC2(CCN(C4CCC4)CC2)O3)CC1 [Example 453] | – | – | > 245 °C (dec.) | – | – | Ki ([1]; read-out: Human H3 Ki): < 200 nM; Ki ([2]; read-out: Rat H3 kI): < 200 nM
41 | O=C(Nc1ccc2c(c1)CCC1(CCN(C3CCC3)CC1)O2)c1cc(-c2ccccc2)ncn1 [Example 249] | < 200 nM | < 200 nM | 153 to 155 °C | – | – | –
42 | O=C(C1CC1)N1CCN(c2ccc3c(c2)CCC2(CCN(C4CCC4)CC2)O3)CC1 [Example 376] | – | – | 169 to 171 °C | – | – | Ki [1, 9]: < 200 nM; Ki [2, 10]: < 200 nM
43 | O=C1N(c2ccccc2)CCN1c1ccc2c(c1)CCC1(CCN(C3CCC3)CC1)O2 [Example 229] | < 200 nM | < 200 nM | 182 to 185 °C | – | – | –
44 | OC1CCN(c2ccc3c(c2)CCC2(CCN(C4CCC4)CC2)O3)CC1 [Example 405] | – | – | > 265 °C (dec.) | – | – | Ki [1, 9]: < 200 nM; Ki [2, 10]: < 200 nM
45 | c1ncc(COc2ccc3c(c2)CCC2(CCN(C4CCC4)CC2)O3)s1 [Example 574] | – | – | 85 to 87 °C | < 200 nM | < 200 nM | –
46 | Cc1n[nH]c(C)c1-c1ccc2c(c1)CCC1(CCN(C3CCC3)CC1)O2 [Example 167] | < 200 nM | < 200 nM | 86 to 88 °C | – | – | –
47 | c1cc2c(cc1N1CCC1)CCC1(CCN(C3CCC3)CC1)O2 [Example 438] | – | – | 118 to 120 °C | – | – | Ki [1, 9]: < 200 nM; Ki [2, 10]: < 200 nM
48 | O=C(Nc1cccc(Cl)c1)Nc1ccc2c(c1)COC1(CCN(C3CCC3)CC1)O2 [Example 186] | < 200 nM | < 200 nM | 216 to 217 °C | – | – | –
49 | O=C(NCCO)c1c(F)cc(-c2ccc3c(c2)CCC2(CCN(C4CCC4)CC2)O3)cc1F [Example 260] | < 200 nM | < 200 nM | 76.3 to 78.2 °C | – | – | –
